Assay results taken from patent publication US20210382058A1, “PATIENT SELECTION FOR TREATMENT OF MYC POSITIVE CANCERS WITH INDENOISOQUINOLINES” (Purdue Research Foundation, priority 2020, published 2021).
Where two headings read alike, the source gives them in different places.

Assays:
[1] = system: MYC protein expression in MCF-7 breast cancer cells; test: Western blotting of MYC protein level in MCF-7 cells; assay type: cell-based, human; settings: Homo sapiens, MCF7; western blotting, MCF-7 cells, 0.5, 1, 2, and 4 μM, 24 hours; read-out: MYC Inhibition
Method in brief: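 MCF-7 cells were exposed to compounds at 0.5, 1, 2 and 4 μM for 24 hours at 37° C. MYC was detected by immunoblot with ECL, using rabbit anti-MYC (1:1000) and anti-GAPDH (1:2000) as loading control.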

human topoisomerase I = biological target: T1, human topoisomerase I (Homo sapiens, UniProt P11387); settings: relative topoisomerase I inhibition levels, previously determined, six levels (0 - 5, +++++ = 5); cited from earlier work
T1 sequence (P11387 1-765): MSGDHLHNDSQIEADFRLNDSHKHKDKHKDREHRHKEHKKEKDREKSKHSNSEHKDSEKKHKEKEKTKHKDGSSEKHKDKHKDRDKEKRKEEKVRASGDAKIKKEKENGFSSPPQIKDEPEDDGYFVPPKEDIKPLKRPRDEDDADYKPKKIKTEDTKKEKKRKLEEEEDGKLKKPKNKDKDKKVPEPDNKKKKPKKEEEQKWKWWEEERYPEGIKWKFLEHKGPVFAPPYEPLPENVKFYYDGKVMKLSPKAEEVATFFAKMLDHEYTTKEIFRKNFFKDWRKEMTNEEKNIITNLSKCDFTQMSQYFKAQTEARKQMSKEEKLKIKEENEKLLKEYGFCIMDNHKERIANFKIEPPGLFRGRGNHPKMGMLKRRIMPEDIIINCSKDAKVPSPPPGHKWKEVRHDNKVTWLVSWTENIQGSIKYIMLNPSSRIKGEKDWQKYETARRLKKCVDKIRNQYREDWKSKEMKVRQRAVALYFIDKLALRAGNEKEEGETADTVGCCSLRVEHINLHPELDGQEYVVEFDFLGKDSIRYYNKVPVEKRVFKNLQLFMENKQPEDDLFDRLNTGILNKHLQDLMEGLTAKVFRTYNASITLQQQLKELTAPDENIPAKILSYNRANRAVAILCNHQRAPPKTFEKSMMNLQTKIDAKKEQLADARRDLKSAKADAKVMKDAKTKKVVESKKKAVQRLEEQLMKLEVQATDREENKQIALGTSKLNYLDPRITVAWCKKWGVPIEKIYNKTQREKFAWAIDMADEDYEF

NCI-60 cancer cell lines = test: NCI-60 cancer cell line drug screen (GI50, MGM); assay type: cell-based, human; settings: Homo sapiens; for GI50: read-out: Antiproliferative Activities [GI50 (μM)]
Description: Cancer cells were incubated with the test compounds at five concentrations ranging from 100 μM to 10 nM for 48 h. […] The approximate average of GI50 values across the entire panel of NCI-60 cancer cell lines for each compound was recorded as the MGM value.

Question: For `CN(C)CCCn1c2c(c3ccc(-c4ccn[nH]4)cc3c1=O)C(=O)c1ccccc1-2` [Compound 30], which minimal effective concentration [1] is on record?
Answer: 4 µM

Question: And the “Top1 Inhibiton” value (human topoisomerase I)?
Answer: 0 (no inhibition, 0, no MYC expression inhibition up to 4.0 μM)

Question: What about the GI50 (NCI-60 cancer cell lines; 786-0, Renal Cancer, 786-0) of the same compound?
Answer: 0.22 µM

Question: And the GI50 (NCI-60 cancer cell lines; A498, Renal Cancer, A498)?
Answer: 10.6 µM

Question: What about the GI50 (NCI-60 cancer cell lines; A549, Non-Small Cell Lung Cancer, A549/ATCC) of the same compound?
Answer: 0.06 µM

Question: And the GI50 (NCI-60 cancer cell lines; ACHN, Renal Cancer, ACHN)?
Answer: 0.09 µM

Question: What about the GI50 (NCI-60 cancer cell lines; BT-549, Breast Cancer, BT-549) of the same compound?
Answer: 3.1 µM

Question: What about the GI50 (NCI-60 cancer cell lines; CCRF-CEM, Leukemia, CCRF-CEM) of the same compound?
Answer: 0.03 µM

Question: And the GI50 (NCI-60 cancer cell lines; COLO 205, Colon Cancer, COLO 205)?
Answer: 4.92 µM

Question: And the GI50 (NCI-60 cancer cell lines; DU-145, Prostate Cancer, DU-145)?
Answer: 0.2 µM

Question: And the GI50 (NCI-60 cancer cell lines; EKVX, Non-Small Cell Lung Cancer, EKVX)?
Answer: 2.91 µM

Question: What about the GI50 (NCI-60 cancer cell lines; HCC 2998, Colon Cancer, HCC-2998) of the same compound?
Answer: 10 µM

Question: And the GI50 (NCI-60 cancer cell lines; HCT-15, Colon Cancer, HCT-15)?
Answer: 0.09 µM

Question: What about the GI50 (NCI-60 cancer cell lines; HCT-116, Colon Cancer, HCT-116) of the same compound?
Answer: 0.39 µM

Question: What about the GI50 (NCI-60 cancer cell lines; HL-60, Leukemia, HL-60(TB)) of the same compound?
Answer: 0.03 µM

Question: And the GI50 (NCI-60 cancer cell lines; HOP-62, Non-Small Cell Lung Cancer, HOP-62)?
Answer: 0.18 µM

Question: What about the GI50 (NCI-60 cancer cell lines; HOP-92, Non-Small Cell Lung Cancer, HOP-92) of the same compound?
Answer: 0.13 µM

Question: And the GI50 (NCI-60 cancer cell lines; HT-29, Colon Cancer, HT29)?
Answer: 0.34 µM

Question: And the GI50 (NCI-60 cancer cell lines; Hs-578T, Breast Cancer, HS 578T)?
Answer: 4.9 µM

Question: What about the GI50 (NCI-60 cancer cell lines; IGROV-1, Ovarian Cancer, IGROV1) of the same compound?
Answer: 0.58 µM

Question: And the GI50 (NCI-60 cancer cell lines; K562, Leukemia, K-562)?
Answer: 0.34 µM

Question: What about the GI50 (NCI-60 cancer cell lines; KM12, Colon Cancer, KM12) of the same compound?
Answer: 0.53 µM

Question: And the GI50 (NCI-60 cancer cell lines; LOX IMVI, Melanoma, LOX IMVI)?
Answer: 0.1 µM

Question: And the GI50 (NCI-60 cancer cell lines; Leukemia, SR)?
Answer: 0.02 µM

Question: What about the GI50 (NCI-60 cancer cell lines; MCF7, Breast Cancer, MCF7) of the same compound?
Answer: 0.04 µM

Question: And the GI50 (NCI-60 cancer cell lines; MDA-MB-231, Breast Cancer, MDA-MB-231/ATCC)?
Answer: 1.27 µM

Question: What about the GI50 (NCI-60 cancer cell lines; MDA-MB-435, Melanoma, MDA-MB-435) of the same compound?
Answer: 10.3 µM

Question: And the GI50 (NCI-60 cancer cell lines; MDA-MB-468, Breast Cancer, MDA-MB-468)?
Answer: 7.84 µM

Question: And the GI50 (NCI-60 cancer cell lines; MOLT-4, Leukemia, MOLT-4)?
Answer: 0.02 µM

Question: What about the GI50 (NCI-60 cancer cell lines; Malme-3M, Melanoma, MALME-3M) of the same compound?
Answer: 0.93 µM

Question: What about the GI50 (NCI-60 cancer cell lines; Melanoma, M14) of the same compound?
Answer: 1.65 µM

Question: What about the GI50 (NCI-60 cancer cell lines; NCI-H23, Non-Small Cell Lung Cancer, NCI-H23) of the same compound?
Answer: 0.24 µM

Question: What about the GI50 (NCI-60 cancer cell lines; NCI-H226, Non-Small Cell Lung Cancer, NCI-H226) of the same compound?
Answer: 0.27 µM

Question: What about the GI50 (NCI-60 cancer cell lines; NCI-H322M, Non-Small Cell Lung Cancer, NCI-H322M) of the same compound?
Answer: 7.05 µM

Question: What about the GI50 (NCI-60 cancer cell lines; NCI-H460, Non-Small Cell Lung Cancer, NCI-H460) of the same compound?
Answer: 0.04 µM

Question: What about the GI50 (NCI-60 cancer cell lines; NCI-H522, Non-Small Cell Lung Cancer, NCI-H522) of the same compound?
Answer: 0.84 µM

Question: And the GI50 (NCI-60 cancer cell lines; OVCAR-3, Ovarian Cancer, OVCAR-3)?
Answer: 6.09 µM

Question: And the GI50 (NCI-60 cancer cell lines; OVCAR-4, Ovarian Cancer, OVCAR-4)?
Answer: 1.45 µM

Question: What about the GI50 (NCI-60 cancer cell lines; OVCAR-5, Ovarian Cancer, OVCAR-5) of the same compound?
Answer: 1.51 µM

Question: And the GI50 (NCI-60 cancer cell lines; OVCAR-8, Ovarian Cancer, OVCAR-8)?
Answer: 0.16 µM

Question: What about the GI50 (NCI-60 cancer cell lines; Ovarian Cancer, NCl/ADR-RES) of the same compound?
Answer: 1.48 µM

Question: And the GI50 (NCI-60 cancer cell lines; Prostate Cancer, PC-3)?
Answer: 1.21 µM

Question: What about the GI50 (NCI-60 cancer cell lines; RPMI-8226, Leukemia, RPMI-8226) of the same compound?
Answer: 0.12 µM

Question: And the GI50 (NCI-60 cancer cell lines; RXF 393, Renal Cancer, RXF 393)?
Answer: 1.66 µM

Question: And the GI50 (NCI-60 cancer cell lines; Renal Cancer, U0-31)?
Answer: 0.3 µM

Question: What about the GI50 (NCI-60 cancer cell lines; SF-268, CNS Cancer, SF-268) of the same compound?
Answer: 1.85 µM

Question: And the GI50 (NCI-60 cancer cell lines; SF-295, CNS Cancer, SF-295)?
Answer: 0.36 µM

Question: And the GI50 (NCI-60 cancer cell lines; SF-539, CNS Cancer, SF-539)?
Answer: 1.04 µM

Question: What about the GI50 (NCI-60 cancer cell lines; SK-MEL-2, Melanoma, SK-MEL-2) of the same compound?
Answer: 18.2 µM

Question: And the GI50 (NCI-60 cancer cell lines; SK-MEL-5, Melanoma, SK-MEL-5)?
Answer: 0.48 µM

Question: And the GI50 (NCI-60 cancer cell lines; SK-MEL-28, Melanoma, SK-MEL-28)?
Answer: 2.01 µM

Question: And the GI50 (NCI-60 cancer cell lines; SK-OV-3, Ovarian Cancer, SK-OV-3)?
Answer: 1.21 µM

Question: And the GI50 (NCI-60 cancer cell lines; SN12C, Renal Cancer, SN12C)?
Answer: 0.25 µM

Question: What about the GI50 (NCI-60 cancer cell lines; SNB-19, CNS Cancer, SNB-19) of the same compound?
Answer: 0.33 µM

Question: What about the GI50 (NCI-60 cancer cell lines; SNB-75, CNS Cancer, SNB-75) of the same compound?
Answer: 1.39 µM

Question: What about the GI50 (NCI-60 cancer cell lines; SW-620, Colon Cancer, SW-620) of the same compound?
Answer: 0.2 µM

Question: And the GI50 (NCI-60 cancer cell lines; T47D, Breast Cancer, T-47D)?
Answer: 0.63 µM

Question: And the GI50 (NCI-60 cancer cell lines; TK-10, Renal Cancer, TK-10)?
Answer: 2.75 µM

Question: And the GI50 (NCI-60 cancer cell lines; U-251, CNS Cancer, U251)?
Answer: 0.18 µM

Question: What about the GI50 (NCI-60 cancer cell lines; UACC-62, Melanoma, UACC-62) of the same compound?
Answer: 0.72 µM

Question: And the GI50 (NCI-60 cancer cell lines; UACC-257, Melanoma, UACC-257)?
Answer: 12.3 µM

Question: What about the mean GI50 across NCI-60 panel (MGM) (NCI-60 cancer cell lines; average of GI50 values across the entire panel of NCI-60 cancer cell lines) of the same compound?
Answer: 600 nM
